The target in the test is T1, autotaxin (ATX) (Homo sapiens, UniProt Q13822).
T1 construct: conditioned medium from the human melanoma cell line, MDA-MB-4355, which endogenously expresses autotaxin; host or cells: MDA-MB-435S human melanoma cells; serum-free conditioned medium, concentrated 20-fold
In words: Native Autotaxin Choline Release Assay. The format is biochemical. The settings on record: autotaxin in conditioned medium from human melanoma cell line; choline released from LPC; read-out: MDA-MB-435S Assay IC50. The method, boiled down: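 Native ATX from conditioned serum-free, phenol-red-free DMEM of confluent cells cultured 48 h; LPC as substrate. Released choline detected with choline oxidase/peroxidase/4-aminoantipyrine colour mix in 50 mM Tris pH 8, 10 min at 37 °C, absorbance 555 nm; choline quantified against standard curve, equated to LPA formed.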
One may read the IC50 as the point on the concentration scale where inhibition reaches its midpoint. `O=C(O)c1cccc(Sc2c(C(F)(F)F)n(Cc3ccccc3)c3cc(Cl)ccc23)c1` [Compound 3-13, 3-(1-Benzyl-6-chloro-2-trifluoromethyl-1H-indol-3-ylsulfanyl)-benzoic acid]: the IC50 is over 1 µM. For `CCc1c(Sc2cccc(C(=O)O)c2)c2ccc(Cl)cc2n1Cc1ccccc1` [Compound 3-15, 3-(1-Benzyl-6-chloro-2-ethyl-1H-indol-3-ylsulfanyl)-benzoic acid] the value was over 1 µM.

On to `CCn1cc(-n2c(C)c(Sc3cccc(C(=O)O)c3)c3ccc(Cl)c(F)c32)cn1` [Compound 3-16, 3-[6-Chloro-1-(1-ethyl-1H-pyrazol-4-yl)-7-fluoro-2-methyl-1H-indol-3-ylsulfanyl]-benzoic acid], for which the IC50 was under 0.3 µM.

Take `O=C(O)c1cccc(Sc2cn(Cc3ccccc3)c3cc(Cl)ccc23)c1` [Compound 3-17, 3-(1-Benzyl-6-chloro-1H-indol-3-ylsulfanyl)-benzoic acid]: the IC50 was 0.3 to 1 µM. For `O=C(O)c1cccc(Sc2cn(-c3cccnc3)c3cc(Cl)ccc23)c1` [Compound 3-19, 3-(6-Chloro-1-pyridin-3-yl-1H-indol-3-ylsulfanyl)-benzoic acid] the value was 0.3 to 1 µM. With `Cc1c(Sc2cccc(C(C)C(=O)O)c2)c2ccc(Cl)cc2n1-c1cccnc1` (stereo not shown) [Compound 3-20, 2-[3-(6-Chloro-2-methyl-1-pyridin-3-yl-1H-indol-3-ylsulfanyl)-phenyl]-propionic acid], the IC50 is under 0.3 µM.

`CCn1cc(-n2c(C)c(Sc3cccc(C(=O)O)c3)c3ccc(Cl)c(C)c32)cn1` [Compound 3-21, 3-[6-Chloro-1-(1-ethyl-1H-pyrazol-4-yl)-2,7-dimethyl-1H-indol-3-ylsulfanyl]-benzoic acid]: the IC50 was under 0.3 µM.

Turning to `Cc1cncc(-n2c(C)c(Sc3cccc(C(=O)O)c3)c3ccc(Cl)c(F)c32)c1` [Compound 3-22, 3-[6-Chloro-7-fluoro-2-methyl-1-(5-methyl-pyridin-3-yl)-1H-indol-3-ylsulfanyl]-benzoic acid], the IC50 was under 0.3 µM. Next, `Cc1c(Sc2cccc(C(=O)O)c2)c2ccc(Cl)c(F)c2n1-c1cnn(-c2ccccc2)c1` [Compound 3-23, 3-[6-Chloro-7-fluoro-2-methyl-1-(1-phenyl-1H-pyrazol-4-yl)-1H-indol-3-ylsulfanyl]-benzoic acid]: under 0.3 µM; `CCCn1cc(-n2c(C)c(Sc3cccc(C(=O)O)c3)c3ccc(Cl)c(F)c32)cn1` [Compound 3-24, 3-[6-Chloro-7-fluoro-2-methyl-1-(1-propyl-1H-pyrazol-4-yl)-1H-indol-3-ylsulfanyl]-benzoic acid]: under 0.3 µM. Take `CCc1cncc(-n2c(C)c(Sc3cccc(C(=O)O)c3)c3ccc(Cl)c(F)c32)c1` [Compound 3-25, 3-[6-Chloro-1-(5-ethyl-pyridin-3-yl)-7-fluoro-2-methyl-1H-indol-3-ylsulfanyl]-benzoic acid]: the IC50 is under 0.3 µM. Next, `CCn1cc(-n2c(C)c(Sc3cccc(C(=O)O)c3)c3cc(F)c(Cl)cc32)cn1` [Compound 3-26, 3-[6-Chloro-1-(1-ethyl-1H-pyrazol-4-yl)-5-fluoro-2-methyl-1H-indol-3-ylsulfanyl]-benzoic acid]: under 0.3 µM; `CCCn1cc(-n2c(C)c(Sc3cccc(C(=O)O)c3)c3cc(F)c(Cl)cc32)cn1` [Compound 3-27, 3-[6-Chloro-5-fluoro-2-methyl-1-(1-propyl-1H-pyrazol-4-yl)-1H-indol-3-ylsulfanyl]-benzoic acid]: under 0.3 µM; `CCn1cc(-n2c(C)c(Sc3cccc(CC(=O)O)c3)c3ccc(Cl)c(F)c32)cn1` [Compound 3-28, {3-[6-Chloro-1-(1-ethyl-1H-pyrazol-4-yl)-7-fluoro-2-methyl-1H-indol-3-ylsulfanyl]-phenyl}-acetic acid]: under 0.3 µM.

Regarding `CCn1cc(-n2c(C)c(Sc3cccc(C(=O)NS(C)(=O)=O)c3)c3ccc(Cl)c(F)c32)cn1` [Compound 3-29, N-{3-[6-Chloro-1-(1-ethyl-1H-pyrazol-4-yl)-7-fluoro-2-methyl-1H-indol-3-ylsulfanyl]-benzoyl}-methanesulfonamide], the IC50 is under 0.3 µM. Turning to `CCn1cc(-n2c(C)c(Sc3ccc(CC(=O)O)cc3)c3ccc(Cl)cc32)cn1` [Compound 3-30, {4-[6-Chloro-1-(1-ethyl-1H-pyrazol-4-yl)-2-methyl-1H-indol-3-ylsulfanyl]-phenyl}-acetic acid], the IC50 was under 0.3 µM.

For the compound `CCn1cc(-n2c(C)c(Sc3cccc(C(=O)O)c3)c3ccc(C#N)cc32)cn1` [Compound 3-31, 3-[6-Cyano-1-(1-ethyl-1H-pyrazol-4-yl)-2-methyl-1H-indol-3-ylsulfanyl]-benzoic acid], the IC50 is under 0.3 µM. On to `Cc1ccc(-n2cc(-n3c(C)c(Sc4cccc(C(=O)O)c4)c4ccc(Cl)c(F)c43)cn2)cc1` [Compound 3-32, 3-[6-Chloro-7-fluoro-2-methyl-1-(1-p-tolyl-1H-pyrazol-4-yl)-1H-indol-3-ylsulfanyl]-benzoic acid], for which the IC50 was under 0.3 µM. Next, `Cc1c(Sc2cccc(C(=O)O)c2)c2ccc(Cl)c(F)c2n1-c1cnn(-c2cccc(Cl)c2)c1` [Compound 3-33, 3-{6-Chloro-1-[1-(3-chloro-phenyl)-1H-pyrazol-4-yl]-7-fluoro-2-methyl-1H-indol-3-ylsulfanyl}-benzoic acid]: under 0.3 µM; `Cc1c(Sc2cccc(C(=O)O)c2)c2ccc(Cl)c(F)c2n1-c1cnn(CC2CC2)c1` [Compound 3-34, 3-[6-Chloro-1-(1-cyclopropylmethyl-1H-pyrazol-4-yl)-7-fluoro-2-methyl-1H-indol-3-ylsulfanyl]-benzoic acid]: under 0.3 µM. Next, `Cc1c(Sc2cccc(C(=O)O)c2)c2ccc(Cl)c(F)c2n1-c1cnn(C2CCCC2)c1` [Compound 3-35, 3-[6-Chloro-1-(1-cyclopentyl-1H-pyrazol-4-yl)-7-fluoro-2-methyl-1H-indol-3-ylsulfanyl]-benzoic acid]: under 0.3 µM. In the case of `Cc1c(Sc2cccc(C(=O)O)c2)c2ccc(Cl)c(F)c2n1-c1cnn(C2CCC2)c1` [Compound 3-36, 3-[6-Chloro-1-(1-cyclobutyl-1H-pyrazol-4-yl)-7-fluoro-2-methyl-1H-indol-3-ylsulfanyl]-benzoic acid], the IC50 was under 0.3 µM. For `CCCn1cc(-n2c(C)c(Sc3cccc(CC(=O)O)c3)c3ccc(Cl)c(F)c32)cn1` [Compound 3-37, {3-[6-chloro-7-fluoro-2-methyl-1-(1-propyl-1H-pyrazol-4-yl)-1H-indol-3-ylsulfanyl]-phenyl}-acetic acid] the value was under 0.3 µM; for `CCn1cc(-n2c(C)c(Sc3cccc(C(=O)NS(=O)(=O)c4ccccc4)c3)c3ccc(Cl)c(F)c32)cn1` [Compound 3-42, N-{3-[6-Chloro-1-(1-ethyl-1H-pyrazol-4-yl)-7-fluoro-2-methyl-1H-indol-3-ylsulfanyl]-benzoyl}-benzenesulfonamide], under 0.3 µM; for `Cc1c(Sc2cccc(C(=O)O)c2)c2ccc(Cl)c(F)c2n1-c1cnn(C2CC2)c1` [Compound 3-47, 3-[6-Chloro-1-(1-cyclopropyl-1H-pyrazol-4-yl)-7-fluoro-2-methyl-1H-indol-3-ylsulfanyl]-benzoic acid], under 0.3 µM.

Values taken from patent US9000025B2, “Autotaxin inhibitors and uses thereof” (Amira Pharmaceuticals, Inc., priority 2010, dated 2015).
